Experimental data reported in patent US20220143183A1, “PHOTOSWITCHABLE PROTACS AND SYNTHESIS AND USES THEREOF” (New York University, priority 2019, published 2022).

What was measured:
BRD4 = BRD4 (Homo sapiens, UniProt O60885); assay: Western blot of BRD4 levels in RS4;11 cells; format: cell-based; set-up: endogenous in cells; host or cells: RS4;11 (ATCC CRL-1873); conditions: 4 h
Protocol: Next, the light dependence of targeted protein degradation was analyzed in RS4;11 cells by western blot analysis of the BET proteins BRD2-4 (FIG. 5). To this end, cells were treated with increasing concentrations of our lead compound, PHOTAC-I-3, for 4 h and pulse-irradiated with 390 nm light (100 ms every 10 s). […] The cereblon-dependent degradation was confirmed by a competition experiment (FIG. 5E), and further validated by siRNA knockdown of cereblon (FIG. 13).
Western Immunoblot Analysis. Rabbit monoclonal Antibodies for BRD4 (#13440), β-Actin (#4970) c-Myc (#5605) and Anti-rabbit IgG, HRP-linked Antibody (#7074) were purchased from Cell Signalling Technologies.
(§1) Cells were incubated with different concentrations of selected compounds. They were placed in a light-proof box and preirradiated for 1 min at 390 nm followed by 100 ms pulses every 10 s or were kept in the dark for 4 h.
(§2) Cultured cells were collected by centrifugation and washed twice with cold PBS. The supernatant was removed and each cell pellet was lysed in 100 μL NP40-Cell-Lysis Buffer+0.1% SDS+1 mM PMSF+ protease inhibitor cocktail (Sigma Aldrich) for 30 min on ice, with vortexing at 10-minute intervals. Afterwards, cells were centrifuged at 13.000 rpm for 10 min at 4° C. Samples were stored on ice and the supernatant was collected for protein concentration determination using a Thermofisher Scientific Pierce™ Coomassie Plus (Bradford) Assay Kit.
(§3) The samples were diluted each with 5 μL Laemmli sample buffer Invitrogen (NuPAGE LDS Sample Buffer 4×) and 1 μL DTT, heated at 95° C. for 5 min. Respectively 20 μL of each sample was loaded in a lane of a Bio-Rad Mini-PROTEAN TGX precast Gel, 4-20%, used with tris-glycine SDS Running buffer. The gel ran 5 min at 50 V, then 35 min at 140 V. Next step was the electrotransfer to a polyvinylidene difluoride (PVDF) membrane which was carried out using an iBlot™ 2 Dry Blotting System set to the standard program. After the transfer, the membrane was washed with 25 mL TB ST for 5 min and subsequent incubated in 25 mL of blocking buffer (1×TBST+5% nonfat dry milk, Blotto, Santa Cruz Biotechnology) for 1 h at room temperature. The membrane was washed three times for 5 min each with 15 mL of TBST and incubated in a 10 mL antibody dilution buffer with gentle agitation at 4° C. overnight (Actin: 1:1000; c-MYC: 1:1000; BRD4: 1:1000). The next day, the membrane was washed again three times for 5 min each with 15 mL TBST, followed by incubation with anti-rabbit, HRP-linked antibody (1:2000) in 10 mL blocking buffer with gentle agitation for 1 h at room temperature. Afterwards, the membrane was washed three times for 5 min each with 15 mL TBST and then incubated in 10 mL of Clarity Max Western ECL Substrate solution for 5 min. Chemoluminescence imaging was performed on a Bio-Rad ChemiDoc™ Imaging System.
(§4) LED illumination. For illumination of the cells we used the cell disco system as previously described in the literature^[25]. 390 nm 5 mm LEDs were purchased from Roithner Lasertechnik. Cells were preirradiated for 1 min at 390 nm, followed by 100 ms pulses every 10 s in 96- or 6-well plates.

RS4;11 lymphoblast cells = assay: Cell viability assay (Promega MTS), dark or pulsed irradiation; format: cell-based, human; conditions: 72 h, dark vs pulsed 390 nm irradiation
Protocol: Optical control of BRD2-4 with PHOTACs. To assess the biological activity of the PHOTACs, their effect on the viability of RS4;11 lymphoblast cells was tested. Cells were treated in a 96-well plate with increasing concentrations of PHOTACs and were either irradiated with 390 nm light pulses (100 ms every 10 s) for 72 h or incubated with the compound in the dark. Subsequently, cell viability assays (Promega MTS) were performed, as previously described.
Cell culture. The human acute lymphoblastic leukemia RS4;11 (ATCC® CRL-1873™) cell line was purchased from the American Type Culture Collection and cultured in RPMI1640 medium (Gibco) with 10% fetal bovine serum (FBS) and 1% penicillin/streptomycin (PS) in a humidified incubator at 37° C. with 5% CO2 in air. Cells were divided every 2-3 days and the concentration was maintained between 1×10^5 and 1×10^6 cells/mL. For the experiments compounds were serially diluted in RPMI160 without the dye phenol red (Gibco) to reduce the influence of the dye by absorption. Azobenzene stocks and dilutions were strictly kept in the dark and prepared under red light conditions.
Colorimetric MTT Assays. The activity of dehydrogenase enzymes in metabolically active cells, as a quantitative measurement for cytotoxicity and proliferation, was determined by colorimetric measurement of the reduction of [3-(4,5-dimethylthiazol-2-yl)-5-(3-carboxymethoxyphenyl)-2-(4-sulfophenyl)-2H-tetrazolium (MTS) to formazan. The absorbance of formazan at 490 nm was measured on a FLUOstar Omega microplate reader (BMG Labtech).
Cells were treated with different concentrations, ranging from 10 μM to 1 nM, of our compounds and incubated on a 96-well plate for 72 h. They were placed in light-proof boxes and exposed to the lighting conditions specified in the experiment for 72 h. Next, 10 μL of Promega CellTiter 96® AQueous One Solution Reagent was added to each well and incubated for further 4-7 hours. The absorbance at 490 nm was then recorded with a 96-well plate reader.
as §4

FKBP12 = target: T1, FKBP12 (Homo sapiens, UniProt P62942); assay: Immunoblot of FKBP12 levels in RS4;11 cells; format: cell-based; conditions: for FKBP12 levels: 390 nm pulse irradiation (100 ms every 10 s); for FKBP12 degradation: in the dark; for hook effect in FKBP12 degradation: 4 h, different concentrations; for FKBP12 degradation with MLN4924: in the presence of MLN4924; for light activation among compounds targeting FKBP12: light vs dark
T1 construct: endogenous in cells; host or cells: RS4;11 (ATCC CRL-1873)
T1 sequence (P62942 whole entry): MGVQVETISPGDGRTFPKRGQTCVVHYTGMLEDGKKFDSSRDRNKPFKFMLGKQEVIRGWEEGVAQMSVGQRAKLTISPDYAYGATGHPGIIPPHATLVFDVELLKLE
Protocol: FIG. 6 depicts optical control of FKBP12 degradation. A) Immunoblot analysis of FKBP12 after treatment of RS4;11 cells with PHOTAC-II-5 for 4 h at different concentrations. Cells were either irradiated with pulses of 390 nm light (left, 100 ms every 10 s) or kept in the dark (right). B) Time course of FKBP12 degradation visualized by immunoblotting. RS4;11 cells were treated with PHOTAC-II-5 (100 nM) and collected at the indicated time points. C) Immunoblot analysis of FKBP12 after treatment of RS4;11 cells with PHOTAC-II-6 for 4 h at different concentrations. Cells were either irradiated with pulses of 390 nm light (left, 100 ms every 10 s) or kept in the dark (right). D) Time course of FKBP12 degradation visualized by immunoblotting. RS4;11 cells were treated with PHOTAC-II-6 (100 nM) and collected at the indicated time points.
FIG. 15 depicts FKBP12 immunoblots in RS4;11 cells. […] B) Degradation of FKBP12. Immunoblot analysis of FKBP12 after treatment of RS4;11 cells with PHOTAC-II-1 for 4 h at different concentrations. Cells were either irradiated with 100 ms pulses of 390 nm light every 10 s (left) or kept the dark (right). C) Time course of FKBP12 degradation visualized by immunoblotting.
Amongst the molecules tested, PHOTAC-II-5 and PHOTAC-II-6 turned out to be the most useful, and the biological investigations have been focused on these molecules (for PHOTACs-II-1-4, see FIG. 16). […] The degradation was slower than in the case of BET proteins, but between 6 and 12 hours the protein was largely absent from the cell lysates (FIG. 6B). […] The time course of FKBP12 degradation by PHOTAC-II-6 was similar to the one observed with PHOTAC-II-5 (FIG. 6D).
as §1, §2, §3
LED illumination. For illumination of the cells we used the cell disco system as previously described in the literature^[25]. […]

Compound	BRD4 levels (BRD4; 390 nm pulses (100 ms every 10 s))	light dependence of activity in viability assay (RS4;11 lymphoblast cells)	concentration at which robust photodegradation of BRD4 was found (BRD4; 390 nm pulses) [nM]	hook effect in BRD4 degradation (BRD4; different concentrations, 390 nm)	FKBP12 levels (FKBP12)	FKBP12 degradation (FKBP12)	hook effect in FKBP12 degradation (FKBP12)	FKBP12 degradation with MLN4924 (FKBP12)	light activation among compounds targeting FKBP12 (FKBP12)
COc1cc(/N=N/c2cccc3c2CN(C2CCC(=O)N(C)C2=O)C3=O)cc(OC)c1OCC(=O)NCCCCNC(=O)C[C@@H]1N=C(c2ccc(Cl)cc2)c2c(sc(C)c2C)-n2c(C)nnc21 (stereo partly drawn) [Me-PHOTAC-I-3, 2-((S)-4-(4-chlorophenyl)-2,3,9-trimethyl-6H-thieno[3,2-f][1,2,4]triazolo[4,3-a][1,4]diazepin-6-yl)-N-(4-(2-(2,6-dimethoxy-4-((E)-(2-(1-methyl-2,6-dioxopiperidin-3-yl)-1-oxoisoindolin-4-yl)diazenyl)phenoxy)acetamido)butyl)acetamide]	inactive control								
Cc1sc2c(c1C)C(c1ccc(Cl)cc1)=N[C@@H](CC(=O)Nc1ccc(/N=N/c3ccc(NC(=O)COc4cccc5c4C(=O)N(C4CCC(=O)NC4=O)C5=O)cc3)cc1)c1nnc(C)n1-2 (stereo partly drawn) [PHOTAC-I-10, 2-((S)-4-(4-chlorophenyl)-2,3,9-trimethyl-6H-thieno[3,2-f][1,2,4]triazolo[4,3-a][1,4]diazepin-6-yl)-N-(4-((E)-(4-(2-((2-(2,6-dioxopiperidin-3-yl)-1,3-dioxoisoindolin-4-yl)oxy)acetamido)phenyl)diazenyl)phenyl)acetamide]		light-dependent behavior	≤ 10	clear hook-effect					
CCC(C)(C)C(=O)C(=O)N1CCCC[C@H]1C(=O)O[C@H](CCc1ccc(OC)c(OC)c1)c1cccc(OCC(=O)NCCCNC(=O)COc2c(OC)cc(/N=N\c3cccc4c3CN(C3CCC(=O)NC3=O)C4=O)cc2OC)c1 (stereo partly drawn) [PHOTAC-II-1, (1R)-3-(3,4-dimethoxyphenyl)-1-(3-(2-((3-(2-(4-((2-(2,6-dioxopiperidin-3-yl)-1-oxoisoindolin-4-yl)diazenyl)-2,6-dimethoxyphenoxy)acetamido)propyl)-amino)-2-oxoethoxy)phenyl)propyl-(2S)-1-(3,3-dimethyl-2-oxopentanoyl)-piperidine-2-carboxylate]					slow, but sustained FKBP12 degradation over time	not when kept in the dark			
CCC(C)(C)C(=O)C(=O)N1CCCC[C@H]1C(=O)O[C@H](CCc1ccc(OC)c(OC)c1)c1cccc(OCC(=O)NCCNC(=O)COc2ccc(/N=N\c3cccc4c3CN(C3CCC(=O)NC3=O)C4=O)cc2)c1 (stereo partly drawn) [PHOTAC-II-5, (1R)-3-(3,4-dimethoxyphenyl)-1-(3-(2-((2-(2-(4-((Z)-(2-(2,6-dioxopiperidin-3-yl)-1-oxoisoindolin-4-yl)diazenyl)phenoxy)acetamido)ethyl)amino)-2-oxoethoxy)phenyl)propyl (25)-1-(3,3-dimethyl-2-oxopentanoyl)piperidine-2-carboxylate]					pronounced effect on FKBP12 levels	no degradation could be observed in the dark	pronounced “hook effect”	inactive	largest light activation
CCC(C)(C)C(=O)C(=O)N1CCCC[C@H]1C(=O)O[C@H](CCc1ccc(OC)c(OC)c1)c1cccc(OCC(=O)Nc2ccc(/N=N/c3ccc(NC(=O)COc4cccc5c4C(=O)N(C4CCC(=O)NC4=O)C5=O)cc3)cc2)c1 (stereo partly drawn) [PHOTAC-II-6, (1R)-3-(3,4-dimethoxyphenyl)-1-(3-(2-((4-((E)-(4-(2-((2-(2,6-dioxopiperidin-3-yl)-1,3-dioxoisoindolin-4-yl)oxy)acetamido)phenyl)diazenyl)phenyl)amino)-2-oxoethoxy)phenyl)propyl (2S)-1-(3,3-dimethyl-2-oxopentanoyl)piperidine-2-carboxylate]					light-dependent degradation	slight dark activity	pronounced “hook effect”	inactive	largest light activation
